# According to patent US10407422B2, “Triazolopyridine inhibitors of myeloperoxidase” (priority 2015, dated 2019):
# Experiments:
# Assay type in all cases: biochemical
# myeloperoxidase (MPO) [1] = biological target: T1, myeloperoxidase (MPO) (Homo sapiens (Human), UniProt P05164); assay: MPO chlorination assay (APF assay); conditions: potency range class
# In short: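 Chlorinating activity followed by APF cleavage to fluorescein (485/535 nm, 3 min kinetic read) after adding APF and 10 μM H2O2. Beforehand, 200 pM enzyme, compound and 120 mM NaCl sat 10 min at room temperature in 100 mM KPi, pH 7.4. Initial-rate slopes gave % inhibition; IC50 by Hill-slope fit.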
# myeloperoxidase (MPO) [2] = biological target: T1, myeloperoxidase (MPO); assay: MPO peroxidation assay (Amplex Red assay); conditions: potency range class
# In short: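 IC50 values come from a four-parameter fit of rates taken from the linear 180-540 s portion of a 15 min kinetic read of resorufin (Ex 535/Em 590 nm). Amplex Red (200 μM) plus 10 mM H2O2 was added after a 10 min room-temperature preincubation of inhibitor with 200 pM MPO and 40 nM H2O2 in 100 mM KPi, pH 7.4.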
# [3] = biological target: eosinophil peroxidase (EPX) (Homo sapiens (Human), UniProt P11678); assay: EPX bromination assay
# Chain of eosinophil peroxidase (EPX) (P11678 140-715): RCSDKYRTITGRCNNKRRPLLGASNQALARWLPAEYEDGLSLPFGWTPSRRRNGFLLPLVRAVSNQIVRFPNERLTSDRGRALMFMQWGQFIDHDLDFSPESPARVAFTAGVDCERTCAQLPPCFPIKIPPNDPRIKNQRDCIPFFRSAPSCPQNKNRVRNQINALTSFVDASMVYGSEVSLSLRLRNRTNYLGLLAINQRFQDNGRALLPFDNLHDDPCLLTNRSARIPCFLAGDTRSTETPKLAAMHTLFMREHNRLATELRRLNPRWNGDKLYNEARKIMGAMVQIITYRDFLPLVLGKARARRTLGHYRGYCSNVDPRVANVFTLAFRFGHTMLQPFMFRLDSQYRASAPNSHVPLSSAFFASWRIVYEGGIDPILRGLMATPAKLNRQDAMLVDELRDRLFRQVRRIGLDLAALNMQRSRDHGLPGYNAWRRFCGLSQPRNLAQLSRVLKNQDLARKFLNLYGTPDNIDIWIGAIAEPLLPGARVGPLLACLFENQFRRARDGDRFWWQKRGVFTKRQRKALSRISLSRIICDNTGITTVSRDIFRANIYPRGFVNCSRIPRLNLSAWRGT
# Description: [formula] where A=minimal Y value (activity level of inhibited sample), B=maximal Y value (activity level of uninhibited sample), C=Log IC50, D=Hill Slope, x=concentration of inhibitor. EPX Bromination Assay
# EPX bromination activity was measured in 100 mM KPi (pH 7.4) by monitoring the H2O2 catalyzed formation of 3-bromo tyrosine from tyrosine and potassium bromide. A 50 μl mixture of 0.6 μM EPX (Lee Biosolutions Cat. #342-60) was added to 100 nL inhibitor in 100% DMSO in a 384 well REMP plate. Enzyme and compound were preincubated for ten minutes at room temperature.
# After the ten minute preincubation of enzyme and inhibitor, 25 μL of a mixture containing 400 μM tyrosine and 1200 μM potassium bromide was added to the plate containing enzyme and inhibitor, followed by the addition of 25 μl of 20 μM H2O2. The reaction was allowed to proceed for 15 minutes, at which time it was quenched with 10 μL of 20% TCA. The final concentrations of all components were 0.3 μM EPX, 100 μM tyrosine, […], 5 μM H2O2, 0.1% DMSO, 2.0% TCA.
# IC50 values were determined by determining the peak areas of 3-bromotyrosine present at the end of the 15 minute reaction and fitting the data to:
# [formula] where A=minimal Y value (activity level of inhibited sample), B=maximal Y value (activity level of uninhibited sample), C=Log IC50, D=Hill Slope, x=concentration of inhibitor.
# Reversed-phase analysis was performed on a Waters Acquity Ultra Performance LC system using an Acquity UPLC BEH C18 […], 2.1×50 mm analytical column. The column was maintained at 60° C. Samples were eluted using a gradient of 0%-100% B over 2.5 minutes, followed by equilibration with 100% A for 1 minute where A consisted of 0.1% TFA and B consisted of 90% MeOH/0.1% TFA at a flow rate of 0.6 mL/min. The retention time of 3-bromo tyrosine was 1.22 min (Method A).
# T1 sequence (P05164 49-745): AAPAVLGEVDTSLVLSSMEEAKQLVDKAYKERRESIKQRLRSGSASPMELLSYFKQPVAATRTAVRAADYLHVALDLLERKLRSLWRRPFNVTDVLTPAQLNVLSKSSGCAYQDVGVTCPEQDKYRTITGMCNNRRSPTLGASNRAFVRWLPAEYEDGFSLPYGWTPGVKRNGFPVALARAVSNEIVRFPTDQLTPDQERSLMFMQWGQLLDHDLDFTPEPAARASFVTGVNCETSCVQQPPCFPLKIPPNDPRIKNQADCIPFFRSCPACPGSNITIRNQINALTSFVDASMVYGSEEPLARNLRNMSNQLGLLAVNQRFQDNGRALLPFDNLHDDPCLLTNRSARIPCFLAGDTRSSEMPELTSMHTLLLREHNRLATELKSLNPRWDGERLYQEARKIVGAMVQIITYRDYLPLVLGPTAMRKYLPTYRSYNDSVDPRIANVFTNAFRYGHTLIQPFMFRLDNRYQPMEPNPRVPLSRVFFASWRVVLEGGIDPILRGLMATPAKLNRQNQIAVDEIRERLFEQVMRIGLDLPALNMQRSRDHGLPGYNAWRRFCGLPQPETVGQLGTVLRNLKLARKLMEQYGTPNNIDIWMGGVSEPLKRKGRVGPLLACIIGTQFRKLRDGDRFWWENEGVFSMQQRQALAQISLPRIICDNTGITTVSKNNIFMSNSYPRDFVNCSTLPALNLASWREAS
IC50 (myeloperoxidase (MPO) [1]) [nM],IC50 (myeloperoxidase (MPO) [2]) [nM],IC50 [3] [nM],SMILES
101 to 999,1 to 100,114,"Nc1cc(Cc2cnn(Cc3ccc4c(c3)C(F)(F)CNC4)c2)c2nn[nH]c2n1 [Example 260, 7-({1-[(4,4-Difluoro-1,2,3,4-tetrahydroisoquinolin-6-yl)methyl]-1H-pyrazol-4-yl}methyl)-3H-[1,2,3]triazolo[4,5-b]pyridin-5-amine]"
101 to 999,1000 to 10000,–,"Nc1cc(Cc2cn(Cc3ccccc3)nc2C(F)(F)F)c2nn[nH]c2n1 [Example 283, 7-{[1-Benzyl-3-(trifluoromethyl)-1H-pyrazol-4-yl]methyl}-3H-[1,2,3]triazolo[4,5-b]pyridin-5-amine]"
101 to 999,101 to 999,–,"Nc1cc(Cc2cn(Cc3cccc(C4CCNCC4)c3)nc2C(F)(F)F)c2nn[nH]c2n1 [Example 284, 7-((1-(3-(Piperidin-4-yl)benzyl)-3-(trifluoromethyl)-1H-pyrazol-4-yl)methyl)-3H-[1,2,3]triazolo[4,5-b]pyridin-5-amine]"
1 to 100,1 to 100,–,"Nc1cc(Cc2cnn(Cc3cccc(C4CCNCC4)c3)c2C(F)(F)F)c2nn[nH]c2n1 [Example 285, 7-[(1-{[3-(Piperidin-4-yl)phenyl]methyl}-5-(trifluoromethyl)-1H-pyrazol-4-yl)methyl]-3H-[1,2,3]triazolo[4,5-b]pyridin-5-amine]"
101 to 999,101 to 999,–,"Nc1cc(Cc2cn(Cc3cccc(C4CCNCC4)c3)nc2C(F)F)c2nn[nH]c2n1 [Example 286, 7-{[3-(Difluoromethyl)-1-{[3-(piperidin-4-yl)phenyl]methyl}-1H-pyrazol-4-yl]methyl}-3H-[1,2,3]triazolo[4,5-b]pyridin-5-amine]"
1000 to 10000,1 to 100,–,"COc1ccc(CN2CCc3ccc(Cn4cc(Cc5cc(N)nc6[nH]nnc56)cn4)cc3C2=O)cc1 [Example 287, 7-{[4-({5-Amino-3H-[1,2,3]triazolo[4,5-b]pyridin-7-yl}methyl)-1H-pyrazol-1-yl]methyl}-2-[(4-methoxyphenyl)methyl]-1,2,3,4-tetrahydroisoquinolin-1-one]"

# Further lines, the compound ahead of its results:
SMILES,IC50 (myeloperoxidase (MPO) [1]) [nM],IC50 (myeloperoxidase (MPO) [2]) [nM],IC50 [3] [nM]
"Nc1cc(Cc2cnn(-c3ccc(F)cc3)c2)c2nn[nH]c2n1 [Example 1, 7-((1-(4-Fluorophenyl)-1H-pyrazol-4-yl)methyl)-3H-[1,2,3]triazolo[4,5-b]pyridin-5-amine]",1 to 100,1 to 100,19
"Nc1cc(Cc2cnn(-c3ccccc3)c2)c2nn[nH]c2n1 [Example 5, 7-((1-Phenyl-1H-pyrazol-4-yl)methyl)-3H-[1,2,3]triazolo[4,5-b]pyridin-5-amine]",1 to 100,1 to 100,11
"Nc1cc(Cc2cnn(Cc3ccccc3)c2)c2nn[nH]c2n1 [Example 34, 7-((1-Benzyl-1H-pyrazol-4-yl)methyl)-3H-[1,2,3]triazolo[4,5-b]pyridin-5-amine]",101 to 999,1 to 100,30
"Nc1cc(Cc2cn(Cc3ccccc3)nn2)c2nn[nH]c2n1 [Example 52, 7-((1-Benzyl-1H-1,2,3-triazol-4-yl)methyl)-3H-[1,2,3]triazolo[4,5-b]pyridin-5-amine]",101 to 999,1 to 100,20
"Nc1cc(Cc2cnn(C3CCC3)c2)c2nn[nH]c2n1 [Example 53, 7-((1-Cyclobutyl-1H-pyrazol-4-yl)methyl)-3H-[1,2,3]triazolo[4,5-b]pyridin-5-amine]",–,1 to 100,32
"Nc1cc(Cc2cnn(Cc3ccc4c(c3)CCNC4)c2)c2nn[nH]c2n1 [Example 130, 7-((1-((1,2,3,4-Tetrahydroisoquinolin-6-yl)methyl)-1H-pyrazol-4-yl)methyl)-3H-[1,2,3]triazolo[4,5-b]pyridin-5-amine]",1 to 100,1 to 100,8
"Nc1cc(Cc2cnn(Cc3ccc(CNC4CC4)cc3)c2)c2nn[nH]c2n1 [Example 185, 7-{[1-({4-[(Cyclopropylamino)methyl]phenyl}methyl)-1H-pyrazol-4-yl]methyl}-3H-[1,2,3]triazolo[4,5-b]pyridin-5-amine]",101 to 999,1 to 100,45
"Nc1cc(Cc2cnn(Cc3cccc(C4CCNC4)c3)c2)c2nn[nH]c2n1 (stereo not drawn) [Example 187, 7-[(1-{[3-(Pyrrolidin-3-yl)phenyl]methyl}-1H-pyrazol-4-yl)methyl]-3H-[1,2,3]triazolo[4,5-b]pyridin-5-amine]",1 to 100,1 to 100,21
